Data taken from PMC5845004, “Novel (p)ppGpp Binding and Metabolizing Proteins of Escherichia coli” (mBio, 2018).
Several values for one entry are separate records, joined by “and”; a condition that tells them apart may be missing. Equal entries are not always repeated. Entries after “also recorded” stand apart in the source; their conditions may differ. Where two headings read alike, the source gives them in different places.

Assays:
Gpt = Gpt (Escherichia coli, UniProt P0A9M5); experiment: DRaCALA Kd determination, purified Gpt; assay type: binding, E. coli; conditions: 2 nM 32P-labeled ligand, read-out: apparent Kd, Gpt
Protocol: (§1) For Kd measurements by DRaCALA, 2-fold serial dilutions from the highest possible concentrations of each purified protein were prepared in binding buffer B, and approximately 2 nM concentrations of α-^32P-labeled ppGpp, pppGpp, GTP, and GDP were added. The mixtures were incubated for 5 min at RT before spotting of 2 µl of the reaction mixtures onto nitrocellulose membranes. The fractions of bound ligand and the apparent Kd values were calculated as previously described ([37]).

[1] = target: DerG1 (residues 2 to 184) (Escherichia coli, UniProt P0A6P5); experiment: DRaCALA Kd determination, Der G1 domain; assay type: binding, E. coli; conditions: 2 nM 32P-labeled ligand, read-out: apparent Kd, DerG1
Protocol: (§2) For Kd measurements by DRaCALA, 2-fold serial dilutions from the highest possible concentrations of each purified protein were prepared in binding buffer B, and approximately 2 nM concentrations of α-^32P-labeled ppGpp, pppGpp, GTP, and GDP were added. The mixtures were incubated for 5 min at RT before spotting of 2 µl of the reaction mixtures onto nitrocellulose membranes. The fractions of bound ligand and the apparent Kd values were calculated as previously described ([37]). For competition assays, purified proteins at the specified concentrations were incubated with 2 nM [α-^32P]ppGpp or [α-^32P]pppGpp in the presence of 100 μM competitor nucleotides in binding buffer B. The reaction mixtures were incubated for 5 min at RT, 2 µl was spotted onto nitrocellulose membranes, and the values corresponding to the bound fractions were determined. EDTA was added at excess concentrations as specified for each case.

PPX = target: PPX; design: method as in ref 35 (Table S1 ref 20); conditions: competitive; ref 35 (Table S1 ref 20); read-out: inhibitory constant Ki, PPX; cited from earlier work
RsgA = target: RsgA; design: method as in Table S1 (4); conditions: ref Table S1 (4); read-out: Kd, S. aureus RsgA (converted); cited from earlier work
NudG [2] = target: T1, NudG (Escherichia coli, UniProt P77788); experiment: In vitro cleavage assay (TLC), NudG; assay type: biochemical, E. coli; conditions: purified NudG, buffer B with 10 mM MgCl2, TLC
T1 construct: expressed in transfected cells; host or cells: E. coli ASKA collection strain, IPTG-induced, whole-cell lysate
Protocol: The purified His6-MutT and His6-NudG proteins were tested for their relative levels of cleavage of ppGpp compared to those seen with their native substrates. For this, a 1 μM concentration of each protein and a 10 nM concentration of [α-^32P]ppGpp were used together with 100 μM concentrations of cold competitors [ppGpp, GTP, ATP, 8-oxo-(d)GTP, 2-hydroxyl-(d)ATP] or 50 mM EDTA in buffer B. The samples were incubated at 30°C for 10 min and for 1 h before the reactions were stopped by adding 50 mM EDTA. The cleavage products were resolved by TLC as described above. The purified His6-NadR and His6-TrmE proteins were tested for their cleavage of both GTP and ppGpp. For cleavage of GTP, 10 μM concentrations of His6-MBP, His6-TrmE, and 20 μM His6-NadR proteins were used with 2 nM [α-^32P]GTP and 100 μM cold GTP in buffer B. For cleavage of ppGpp, 10 μM concentrations of His6-TrmE, His6-MBP, and His6-NadR proteins were used with 10 nM [α-^32P]ppGpp in buffer B. Of note, for His6-TrmE, another reaction was also performed in buffer B supplemented with 100 mM KCl. The reactions were performed at RT for 10 min and were stopped by adding 17% formic acid. The cleavage products were resolved by TLC as described above.
A 20 μM concentration of each of purified proteins MutT, NudG, NadR, TrmE, and MBP (as a negative control) was incubated with 100 μM ppGpp in buffer B (containing 40 mM Tris [pH 7.5], 100 mM NaCl, and 10 mM MgCl2) for 20 min at room temperature. Samples were snap-frozen on dry ice and analyzed with UPLC-MS afterward. All samples and buffers were stored at −80°C, thawed on ice, and kept at 4°C during analysis. For the analysis, a UPLC-quadrupole time of flight (UPLC-qTOF) method (Waters) was used. Analysis conditions were as follows: column, zic-HILIC (Merck Millipore) (150 by 2.1 mm, […], gradient elution, flow rate set to 0.3 ml/min); mobile phase A, 10 mM ammonium acetate (pH 5); mobile phase B, 90% acetonitrile with 10 mM ammonium acetate (pH 5). The gradient was set up as follows: min 0 to 2, 80% B; min 2 to 16, 80% B to 50% B; hold until min 20; injection volume, 4 µl. The detection conditions were as follows: photodiode array detector (PDA), […] (evaluated at 260 nm); MS, ionization; electrospray ionization (ESI+), scan, 200 to 800 m/z with lock mass correction. Analytes were identified by their accurate mass and retention time data for a known standard dissolved in used buffer (for the chemicals of the same nominal masses). These standards were either synthesized and their structures confirmed by nuclear magnetic resonance (NMR) (for ppGp, pGpp, and pGp) or purchased (ppGpp was purchased from Jena Biocsience and GTP from Sigma-Aldrich).

TrmE = TrmE (Escherichia coli, UniProt P25522); experiment: DRaCALA Kd determination, purified TrmE; assay type: binding, E. coli; conditions: in the presence of magnesium, read-out: apparent Kd, TrmE
Protocol: (§3) For Kd measurements by DRaCALA, 2-fold serial dilutions from the highest possible concentrations of each purified protein were prepared in binding buffer B, and approximately 2 nM concentrations of α-^32P-labeled ppGpp, pppGpp, GTP, and GDP were added. The mixtures were incubated for 5 min at RT before spotting of 2 µl of the reaction mixtures onto nitrocellulose membranes. […] For competition assays, purified proteins at the specified concentrations were incubated with 2 nM [α-^32P]ppGpp or [α-^32P]pppGpp in the presence of 100 μM competitor nucleotides in binding buffer B. The reaction mixtures were incubated for 5 min at RT, 2 µl was spotted onto nitrocellulose membranes, and the values corresponding to the bound fractions were determined. EDTA was added at excess concentrations as specified for each case.

Der = Der (Escherichia coli, UniProt P0A6P5); experiment: DRaCALA Kd determination, purified Der; assay type: binding, E. coli; conditions: 2 nM 32P-labeled ligand, read-out: apparent Kd, Der
Protocol: as §3

Hpt = Hpt (Escherichia coli, UniProt P0A9M2); experiment: DRaCALA Kd determination, purified Hpt; assay type: binding, E. coli; conditions: 2 nM 32P-labeled ligand, read-out: apparent Kd, Hpt
Protocol: as §2

NudG [3] = target: T1, NudG; experiment: DRaCALA competition assay, lysate with overproduced NudG; assay type: binding, E. coli; conditions: whole-cell lysate, 2 nM hot (p)ppGpp, 100 µM cold competitor
Protocol: Bacterial cells were collected and frozen at −80°C.

HflX = target: HflX; design: method as in Table S1 (4); conditions: ref Table S1 (4); read-out: Kd, S. aureus HflX (converted); cited from earlier work
Era [4] = target: Era; design: method as in Table S1 (4); conditions: ref Table S1 (4); read-out: Kd, S. aureus Era (converted); cited from earlier work
YgdH = YgdH (Escherichia coli, UniProt P0ADR8); experiment: DRaCALA binding and Kd determination, purified YgdH; design: species or system E. coli; conditions: DRaCALA
Protocol: as §3

HprT = target: HprT; design: method as in ref 39 (Table S1 ref 4); conditions: ref 39 (Table S1 ref 4); read-out: Kd, S. aureus HprT; cited from earlier work
Era [5] = target: Era (Escherichia coli, UniProt P06616); experiment: DRaCALA Kd determination, purified Era; assay type: binding, E. coli; conditions: 2 nM 32P-labeled ligand, read-out: apparent Kd, Era (converted)
Protocol: as §1

RF3 (PrfC) = RF3 (PrfC) (Escherichia coli, UniProt P0A7I4); experiment: DRaCALA Kd determination, purified RF3; assay type: binding, E. coli; conditions: 2 nM 32P-labeled ligand, read-out: apparent Kd, RF3 (PrfC)
Protocol: as §1

[6] = in the presence of EDTA (without Mg2+), read-out: Kd, YgdH + EDTA (converted)
[7] = with 1.5 mM Mg2+, read-out: apparent Kd, YgdH + 1.5 mM Mg2+

T1 sequence (P77788 whole entry): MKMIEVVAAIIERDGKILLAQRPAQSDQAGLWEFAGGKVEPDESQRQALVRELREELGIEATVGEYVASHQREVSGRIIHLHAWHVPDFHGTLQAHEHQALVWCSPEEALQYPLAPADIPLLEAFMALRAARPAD
Sequence of YgdH (P0ADR8 whole entry): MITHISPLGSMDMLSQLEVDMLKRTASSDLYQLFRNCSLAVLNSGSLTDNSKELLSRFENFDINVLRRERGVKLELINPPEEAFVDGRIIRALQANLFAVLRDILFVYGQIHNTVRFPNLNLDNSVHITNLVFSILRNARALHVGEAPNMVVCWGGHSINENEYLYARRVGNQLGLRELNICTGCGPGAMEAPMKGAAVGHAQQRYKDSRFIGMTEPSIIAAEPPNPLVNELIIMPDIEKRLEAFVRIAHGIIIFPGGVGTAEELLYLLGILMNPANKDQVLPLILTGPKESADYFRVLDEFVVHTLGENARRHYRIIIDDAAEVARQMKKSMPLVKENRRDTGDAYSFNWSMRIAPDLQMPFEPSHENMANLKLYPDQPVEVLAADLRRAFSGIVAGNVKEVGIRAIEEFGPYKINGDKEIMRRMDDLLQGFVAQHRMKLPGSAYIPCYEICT
Sequence of Der (P0A6P5 whole entry): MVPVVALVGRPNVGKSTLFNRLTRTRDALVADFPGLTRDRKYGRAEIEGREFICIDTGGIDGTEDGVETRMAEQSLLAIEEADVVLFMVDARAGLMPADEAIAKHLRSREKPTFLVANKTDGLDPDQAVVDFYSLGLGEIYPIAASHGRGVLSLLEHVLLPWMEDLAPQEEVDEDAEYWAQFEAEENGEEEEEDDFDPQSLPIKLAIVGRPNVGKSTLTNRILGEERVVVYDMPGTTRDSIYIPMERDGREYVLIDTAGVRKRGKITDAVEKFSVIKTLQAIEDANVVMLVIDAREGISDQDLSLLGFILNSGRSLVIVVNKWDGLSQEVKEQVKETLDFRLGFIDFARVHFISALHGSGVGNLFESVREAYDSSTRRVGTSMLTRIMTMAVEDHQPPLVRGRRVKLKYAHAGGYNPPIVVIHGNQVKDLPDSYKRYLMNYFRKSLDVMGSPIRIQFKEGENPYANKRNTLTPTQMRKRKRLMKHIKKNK
Sequence of Era (Escherichia coli, UniProt P06616) (P06616 whole entry): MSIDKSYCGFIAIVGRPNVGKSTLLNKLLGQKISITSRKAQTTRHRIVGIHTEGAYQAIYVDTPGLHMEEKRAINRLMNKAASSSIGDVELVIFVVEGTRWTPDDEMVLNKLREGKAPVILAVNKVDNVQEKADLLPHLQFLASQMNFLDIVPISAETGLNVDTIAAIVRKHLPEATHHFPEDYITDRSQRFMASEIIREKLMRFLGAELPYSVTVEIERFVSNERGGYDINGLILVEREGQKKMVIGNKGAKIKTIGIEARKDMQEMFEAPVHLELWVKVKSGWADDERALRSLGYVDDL
Sequence of Hpt (P0A9M2 whole entry): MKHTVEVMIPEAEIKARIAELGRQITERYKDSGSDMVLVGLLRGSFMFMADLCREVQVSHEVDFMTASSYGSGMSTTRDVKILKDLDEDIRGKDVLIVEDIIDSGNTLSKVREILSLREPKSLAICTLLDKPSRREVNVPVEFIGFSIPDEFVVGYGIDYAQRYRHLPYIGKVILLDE
Sequence of TrmE (P25522 whole entry): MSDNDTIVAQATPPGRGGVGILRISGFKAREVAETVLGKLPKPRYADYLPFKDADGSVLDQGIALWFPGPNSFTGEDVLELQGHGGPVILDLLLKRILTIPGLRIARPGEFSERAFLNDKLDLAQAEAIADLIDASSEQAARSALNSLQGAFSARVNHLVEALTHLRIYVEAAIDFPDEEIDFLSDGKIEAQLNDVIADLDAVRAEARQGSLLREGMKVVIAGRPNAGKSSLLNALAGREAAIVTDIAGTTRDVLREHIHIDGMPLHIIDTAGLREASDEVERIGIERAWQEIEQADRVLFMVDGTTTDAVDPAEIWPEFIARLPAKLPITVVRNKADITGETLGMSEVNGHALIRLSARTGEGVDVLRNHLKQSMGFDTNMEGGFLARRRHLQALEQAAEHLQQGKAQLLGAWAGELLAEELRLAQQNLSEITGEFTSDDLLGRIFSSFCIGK
Sequence of RF3 (PrfC) (P0A7I4 whole entry): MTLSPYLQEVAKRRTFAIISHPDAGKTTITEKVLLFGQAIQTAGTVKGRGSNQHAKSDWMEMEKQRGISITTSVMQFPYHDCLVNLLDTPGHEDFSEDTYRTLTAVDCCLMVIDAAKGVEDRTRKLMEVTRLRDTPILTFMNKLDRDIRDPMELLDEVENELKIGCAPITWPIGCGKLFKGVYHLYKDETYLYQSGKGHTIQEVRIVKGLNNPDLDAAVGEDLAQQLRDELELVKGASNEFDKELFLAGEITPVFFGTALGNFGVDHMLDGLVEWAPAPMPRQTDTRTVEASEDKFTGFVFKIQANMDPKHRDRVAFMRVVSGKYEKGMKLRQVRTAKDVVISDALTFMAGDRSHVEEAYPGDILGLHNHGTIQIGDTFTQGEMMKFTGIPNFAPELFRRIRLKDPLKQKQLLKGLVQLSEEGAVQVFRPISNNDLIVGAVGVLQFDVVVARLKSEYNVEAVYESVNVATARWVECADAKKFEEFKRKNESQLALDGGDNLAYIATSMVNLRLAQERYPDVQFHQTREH
Sequence of DerG1 (residues 2 to 184) (P0A6P5 2-184): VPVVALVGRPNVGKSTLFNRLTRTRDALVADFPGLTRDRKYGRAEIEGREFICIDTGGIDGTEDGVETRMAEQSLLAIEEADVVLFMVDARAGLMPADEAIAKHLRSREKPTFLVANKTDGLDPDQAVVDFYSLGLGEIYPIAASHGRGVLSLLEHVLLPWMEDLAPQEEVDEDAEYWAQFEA
Sequence of Gpt (P0A9M5 whole entry, the tested form may be a part): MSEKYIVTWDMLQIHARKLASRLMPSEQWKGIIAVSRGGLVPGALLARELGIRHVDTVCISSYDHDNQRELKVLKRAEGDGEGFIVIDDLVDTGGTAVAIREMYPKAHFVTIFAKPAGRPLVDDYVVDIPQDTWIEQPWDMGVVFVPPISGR

Row | Compound | Kd (Gpt) [µM] | Kd [1] [µM] | Ki (PPX) [µM] | Kd (RsgA) [µM] | cleavage by NudG (NudG [2]) | Kd (TrmE) [nM] | Kd (Der) | Kd (Hpt) [µM] | competition for NudG-bound (p)ppGpp (NudG [3]) | Kd (HflX) [µM] | Kd (Era [4]) [nM] | Kd (YgdH; [6]) | Kd (YgdH; [7]) [µM] | Kd (HprT) [nM] | Kd (Era [5]) [µM] | Kd (RF3 (PrfC)) [µM]
1 | Nc1nc2c(ncn2[C@@H]2O[C@H](COP(=O)(O)OP(=O)(O)O)[C@@H](OP(=O)(O)OP(=O)(O)O)[C@H]2O)c(=O)[nH]1 [ppGpp, guanosine tetraphosphate] | 5.2 ± 0.9 | 5.9 ± 2.5 | 200 | 1.69 ± 0.13 | degraded into smaller products; also recorded: relatively weak ppGpp cleavage activity | 1700 ± 500 | 1800 nM and 1770 nM | 6.1 ± 0.9 | could outcompete the bound, radiolabeled (p)ppGpp | 0.87 ± 0.15 | 950 ± 60 | 4 ± 0.5 µM | 24.4 ± 4.7 | 370 | 4.3 ± 0.6 | 0.82 ± 0.09
2 | Nc1nc2c(ncn2[C@@H]2O[C@H](COP(=O)(O)OP(=O)(O)OP(=O)(O)O)[C@@H](OP(=O)(O)OP(=O)(O)O)[C@H]2O)c(=O)[nH]1 [pppGpp, guanosine pentaphosphate] | 6.7 ± 0.9 | 4.7 ± 2.3 | 10 | 10.3 | degraded into smaller products | 2200 ± 900 | 6900 ± 2900 nM | 6.2 ± 0.8 | could outcompete the bound, radiolabeled (p)ppGpp | 13.6 | 3850 | 1.6 µM and 1.59 µM | 37.2 ± 6.5 | 750 | 21.4 | 15 ± 5
